This note sets out measurements from article PMC4821612, “Multispecific Organic Cation Transporter 1 (OCT1) from Bos taurus Has High Affinity and Slow Binding Kinetics towards Prostaglandin E2” (PLoS ONE, 2016).

The target of experiment [1] is T1, Organic cation transporter 1 (btOCT1) (Bos taurus, UniProt A7MBE0, N71Q/N91Q/N107Q).
T1 construct: gene SLC22A1; purified tag-free btOCT1 triple N-glycosylation mutant (NP_001094568.1), expressed in Pichia pastoris
T1 sequence (A7MBE0 1-563 N71Q/N91Q/N107Q): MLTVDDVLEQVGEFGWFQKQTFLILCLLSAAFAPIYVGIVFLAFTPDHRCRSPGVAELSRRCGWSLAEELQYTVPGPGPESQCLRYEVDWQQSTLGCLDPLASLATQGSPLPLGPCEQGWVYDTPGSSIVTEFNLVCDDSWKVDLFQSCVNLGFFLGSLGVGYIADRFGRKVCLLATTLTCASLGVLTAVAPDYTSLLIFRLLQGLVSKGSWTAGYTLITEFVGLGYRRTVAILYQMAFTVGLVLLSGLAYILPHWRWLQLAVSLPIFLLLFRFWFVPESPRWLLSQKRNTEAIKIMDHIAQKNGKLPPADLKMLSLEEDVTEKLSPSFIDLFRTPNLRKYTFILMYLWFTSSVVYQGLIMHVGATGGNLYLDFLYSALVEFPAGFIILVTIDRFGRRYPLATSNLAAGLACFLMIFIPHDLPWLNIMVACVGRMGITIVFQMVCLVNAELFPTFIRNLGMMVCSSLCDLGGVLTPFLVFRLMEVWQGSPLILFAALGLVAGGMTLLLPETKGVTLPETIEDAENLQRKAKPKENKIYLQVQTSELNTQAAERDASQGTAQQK
Put plainly: fluorescence polarization with purified btOCT1; rhodamine […] alone does not bind. The class given is binding.

Experiment [2] deals with T2, Organic cation transporter 1 (btOCT1) (Bos taurus, UniProt A7MBE0, N107Q/N71Q/N91Q).
T2 construct: gene SLC22A1; purified tag-free btOCT1 triple N-glycosylation mutant (NP_001094568.1), expressed in Pichia pastoris
T2 sequence (A7MBE0 1-563 N71Q/N91Q/N107Q): T1 sequence (A7MBE0 1-563 N71Q/N91Q/N107Q)
Put plainly: SPR kinetics, purified btOCT1 over streptavidin-immobilised PGE2-PEG11-Biotin (PEG11-Biotin control); steady-state k […]. The class given is binding.

For orientation: Kd means the free concentration of one partner at which half of the binding sites on the other are occupied at equilibrium, for simple one-to-one binding. The low end stands for a tighter complex, the high end for a looser complex. With PGE2-Rhodamine, in experiment [1], the Kd came to 540 nM. `CCCCC[C@H](O)/C=C/[C@H]1[C@H](O)CC(=O)[C@@H]1C/C=C\CCCC(=O)O` [Prostaglandin E2] came in with a Kd in experiment [2] of about 100 nM.
